Columns and labels:
[1] = tested on: Bone marrow derived mast cells (BMMC); test: Cell death assay (Trypan blue exclusion) in BMMC; assay type: cell-based; details: 24 hours
Description: Cytotoxicity assays were performed as described in Materials and Methods. In Figures 1A to 1C, BMMCs were incubated with either SLF (500ng/ml in all cases) (circles) or IL-3 (25% WEHI-3 conditioned medium in all cases) (squares) with the indicated amounts of ketotifen (Figure 1A), econazole (Figure 1B) or Ni^2+ (Figure 1C). In Figure 1D, BMMCs were incubated with IL-3, and the indicated amounts of SLF. Plotted circles also included 2.5mM Ni^2+ and plotted squares included no Ni^2+. In Figure 1E, BMMCs were coated with IgE anti-DNP monoclonal SPE-7, then incubated with IL-3 plus the indicated amounts of DNP-HSA (Ag), with 5µM econazole (circles) or without econazole (squares). In Figure 1F, BMMCs were incubated with IL-3 plus the indicated amounts of Substance P, with 5µM econazole (circles) or without econazole (squares). In all cases, the proportion of dead cells was determined after 24 hours in culture by counting cells that could or could not exclude Trypan blue. Error bars represent the standard error determined from triplicate measurements.
(§1) Cells. Bone marrow derived mast cells (BMMC) were generated as described previously (Berger et al., 1994). They were cultured in OPTI-MEM (Gibco, Burlington, ON) supplemented with 10% heat-inactivated FBS and 2% WEHI-3 supernatant as a source of IL-3. 32D-kit cells (gift from Dr. Mark Minden, Ontario Cancer Institute) are an IL-3-dependent myelomonocytic cell line expressing c-kit (Hu et al., 1995). 32D-kit cells were grown in RPMI (Gibco) supplemented with 10% heat-inactivated FBS, 2% WEHI-3 supematant, and 1 mg/ml G418 (Gibco). The p815 cell line is a murine mastocytoma cell line. P815 cells were grown in RPMI supplemented with 10% heat-inactivated FBS. Bcl-2 gp+e NIH 3T3 packaging cells were grown in Dulbecco's modified Eagle's medium (DMEM - Gibco) and supplemented with 10% FBS and 2 µg/ml puromycin (Sigma, St. Louis, Mo). All cell cultures also contained 55µM β-mercaptoethanol and antibiotics (both Sigma). SK-BR3, MDA-MB231 and MCF-7 cells were obtained from ATCC. SK-BR3 and MDA-MB231 cells were cultured in RPMI medium supplemented with 10% heat inactivated fetal bovine serum. MCF-7 cells were cultured in DMEM medium supplemented with 10% heat inactivated fetal bovine serum and 10 µg/ml human insulin (Sigma).
(§2) Cell death assays. 2.5 X 10^4 BMMCs, 32D-kit or P815 cells were placed in 96-well flat bottom plates in a volume of 0.1 ml RPMI containing 0.5% FBS. Cells were supplemented with either SLF, Substance P or IL3 plus Ca^2+ channel blocker. In the case of adding IgE, cells were incubated with 10 µg/ml SPE-7 for 45 minutes at 4°C followed by 3 washes with RPMI, 0.5% FBS before plating in 96 well plates and adding 100 ng/ml DNP-HSA. The proportion of dead cells was determined after 18 or 24 hours in culture by counting cells that could or could not exclude Trypan blue.

[2] = tested on: 32D-kit cells; test: Cell death assay (Trypan blue exclusion) in 32D-kit cells; assay type: cell-based
Description: Figures 2A and 2B show induction of cell death in 32D-kit or p815 cells with SLF plus Ca^2+ influx blockers. 32D-kit (Figure 2A) or p815 (Figure 2B) cells were incubated with either SLF (solid bars) or IL-3 (striped bars) plus the indicated concentration of Ca^2+ influx blocker. Cell death was determined by Trypan Blue exclusion after 18 hours in culture.
32D-kit cells were incubated for 18 hours with SLF and 5µM econazole and oleic acid (solid bars), or with SLF and 5µM econazole and elaidic acid (hatched bars), or IL-3 and 5 µM econazole and oleic acid (stippled bars). The proportion of dead cells was determined by Trypan Blue exclusion.
(§3) Figures 6A and 6B show the effect of ionomycin on apoptosis induced by SLF and Ca^2+ influx blacker. In Figure 6A, 32D-kit cells were incubated for 18 hours with 5µM econazole and the indicated amounts of ionomycin in the presence of either SLF (circles) or IL-3 (squares). In Figure 6B, 32D-kit-Bcl-2 cells were incubated for 18 hours with 5µM econazole and the indicated amounts of ionomycin in the presence of either SLF (circles) or IL-3 (squares). The proportion of dead cells was determined by Trypan Blue exclusion.
(§4) In additional cultures, IL-3 alone or no factor was added and cell viability was similarly tested. The effect on cell viability of adding 25 or 250 µM YVAD-CHO was also evaluated in separate cultures in which no additional factors were added.
32D-kit cells were incubated with either SLF in the absence of YVAD-CHO (circles), or with SLF in the presence of 25 µM YVAD-CHO. (triangles), or IL-3 (squares) with the indicated amounts of econazole. The proportion of dead cells was evaluated by Trypan Blue exclusion after 18 hours in culture
as §1, §2

[3] = tested on: MDA-MB-231 cells; test: Cell death in autocrine stimulated MDA-MB-231 breast cancer cells; assay type: cell-based, human; details: 20µM econazole; YVAD-CHO 10 or 100 µM, ionomycin 0.1 nM to 1 µM, oleic acid 10 or 100 µM
Description: Bar 1: control; Bar 2: 20µM econazole; Bar 3: 20µM econazole and 10µM YVAD-CHO (ICE inhibitor); Bar 4: 20µM econazole and 100 µM YVAD-CHO; Bar 5: 20µM econazole and 0.1 nM ionomycin (calcium ionophore); Bar 6: 20µM econazole and 10 nM ionomycin; Bar 7: 20µM econazole and 1 µM ionomycin; Bar 8: 20µM econazole and 10 µM oleic acid (PLC activation inhibitor); and Bar 9: 20µM econazole and 100 µM oleic acid.
as §1
The MDA-MB-231 cell line is a highly anaplastic carcinoma of the breast. it too is tumorigenic in nude mice but expresses only low levels of erbB2. However it is FGF^R positive and is stimulated in an autocrine fashion by bFGF (el Yazidi et al., 1995). Experiments were carried out to determine the susceptibility of MDA-MB-231 cells to a Ca^2+ influx blocker and the influence of oleic acid, ionomycin, and YVAD-CHO on induction of cell death by the blocker. The results are summarized together in Figure 9B.

[4] = tested on: 32D-kit-Bcl-2 cells; test: Cell death assay (Trypan blue exclusion) in Bcl-2 over-expressing 32D-kit cells; assay type: cell-based; details: 5µM econazole, 18 hours, Figure 6B
Description: as §3, §4
Generation of Bcl-2 over-expressing 32D-kit cells. gp + e bcl-2 retroviral producer cells were a gift from Dr. Y. Ben-David (Toronto) and contain an LXSN-based retroviral vector expressing genes for both puromycin resistance and murine bcl-2. For infection, a confluent layer of gp + e packaging cells were co-cultured with 32D-kit cells for 24 hours. Non-adherent 32D-kit cells were then removed, cultured for 48 hours and then selected for bcl-2 over-expressing cells in the presence of 2µg/ml puromycin.
as §2

[5] = tested on: all cells capable of forming colonies in agar in response to IL-3; test: 32D-kit leukemia in mice, SLF intravenously: all IL-3-dependent spleen colonies in agar; assay type: in vivo; details: ketotifen 100mg/kg p.o. twice, SLF 15µg intravenously; leukemic as well as normal cells
Description: Figure 11B is similar to Figure 11A, but in this case spleen cells were assayed for the presence of all cells capable of forming colonies in agar in response to IL-3, to include leukemic as well as normal cells.
(§5) Mice. For the in vivo 32D-kit experiments, mice were male C3H/ he mice 6 to 8 weeks old and obtained from Charles River Laboratories, Boston, Massachusetts. Mice were inoculated intravenously with 1 x 10^7 leukemic cells. Between 3 and 5 weeks following the inoculation, mice were given 100 mg/kg ketotifen (Sigma) in a volume of 0.4 ml water by oral gavage, Following the first ketotifen treatment, mice were injected intravenously or subcutaneously with 15 µg SLF in PBS. A second ketotifen treatment followed administration of SLF.
(§6) In order to determine the efficacy of the combination of a Ca^2+ influx blocker with an activating signal in vivo, mice inoculated with factor-dependent and G418-resistant 32D-kit leukemia cells were treated with a combination of ketotifen and SLF. […] The number of G418-resistant colonies detected in animals that were injected with SLF only tended to be higher than those not receiving the factor, varying between 65 and 31,000 with an arithmetic average of 7,399, and a geometric mean of 1,545 colonies/spleen. […]

[6] = tested on: 32D-kit leukemia cells; test: 32D-kit leukemia in mice, SLF intravenously: G418-resistant spleen colonies in agar; assay type: in vivo
Description: Mice were inoculated intravenously with 1 X 10^7 G418-resistant 32D-kit cells. Between 3 and 5 weeks following the inoculation (Experiments 1 & 3; 5 weeks, experiment 2; 3 weeks), mice were given 100mg/kg ketotifen by oral gavage. Four hours following the ketotifen treatment, mice were injected with 15µg SLF intravenously. Two hours later the mice were given a further 100mg/kg ketotifen p.o. The following day, spleens were removed and assayed for the presence of leukemic cells by plating cells in 0.3% agar in growth medium containing 20% WEHI-3 conditioned medium and 1 mg/ml G418 to limit detection to the G418-resistant leukemic cells. Seven days later, colonies were enumerated.
as §5
as §6, with “SLF. In one set of experiments, spleen cells were removed and assayed for the presence of leukemic cells by plating cells in agar in growth medium containing 20% WEHI-3 conditioned medium and 1mg/ml G418 to limit detection to the G418-resistant leukemic cells.” for “SLF.”

[7] = co-incubated with SLF (500ng/ml), Figures 1A-C
[8] = stimulated with IgE plus antigen (DNP-HSA), with IL-3, 5µM econazole in Figure 1E
[9] = SLF and 5µM econazole, 18 hours
[10] = ketotifen 100mg/kg p.o. twice, SLF 15µg intravenously, spleens next day

[Ni+2] [Ni^2+]
cell death [1, 7]: converted to a death signal
cell death [1, 8]: combine with IgE receptor cross-linking to induce cell death

CCCCCCCC/C=C/CCCCCCCC(=O)O [elaidic acid, trans-9-octadecenoic acid]
rescue/protection from cell death induced by SLF and Ca^2+ influx blocker [2, 9]: not

C[C@H](CCC(=O)O)C[C@H](C)C[C@H](C)C(=O)/C=C(\O)[C@H](C)C[C@H](C)C/C=C/[C@@H](C)[C@@H](O)[C@@H](C)[C@@H](O)C[C@@H]1CC[C@@](C)([C@H]2CC[C@@](C)([C@@H](C)O)O2)O1 [ionomycin]
protection from death induced by the Ca^2+ influx blocker [3]: can protect
cell death at higher concentrations of ionomycin [2, 9]: restoration of cell death
rescue/protection from cell death induced by SLF and Ca^2+ influx blocker [2, 9]: protects
concentration of maximal protection ([2]; SLF and 5µM econazole, 18 hours, Figure 6A): 10 nM
cell death at higher levels of ionomycin [4]: did not demonstrate significant cell death
protection from apoptosis by SLF plus blocker ([4]; low levels of ionomycin): similarly protected from apoptosis

CN1CCC(=C2c3ccccc3CC(=O)c3sccc32)CC1 [ketotifen]
cell death [1, 7]: converted to a death signal
cell death [1, 8]: combine with IgE receptor cross-linking to induce cell death
IL-3-dependent colonies, arithmetic average [5]: 7,715 colonies/spleen
IL-3-dependent colonies, geometric mean [5]: 2,320 colonies/spleen
activity on the leukemic cells in vivo ([6]; SLF intravenously): little activity
G418-resistant colonies, arithmetic average [6, 10]: 5,502 colonies/spleen
G418-resistant colonies, geometric mean [6, 10]: 849 colonies/spleen

CCCCCCCC/C=C\CCCCCCCC(=O)O [oleic acid, cis-9-octadecenoic acid]
protection from death induced by the Ca^2+ influx blocker [3]: can protect
range of effectiveness (rescue from cell death) [2, 9]: 1 to 100 µM
rescue/protection from cell death induced by SLF and Ca^2+ influx blocker [2, 9]: rescued from cell death

COc1ccc(CCN(C)CCCC(C#N)(c2ccc(OC)c(OC)c2)C(C)C)cc1OC (stereo not drawn) [verapamil]
inducing cell death ([2]; combined with SLF, not shown, cell type not stated): ineffective in inducing cell death

YVAD-CHO
protection from death induced by the Ca^2+ influx blocker [3]: can protect
resistance to apoptosis induced by SLF plus econazole ([2]; 25 µM YVAD-CHO, 18 hours, Figure 8): provides resistance
protection from apoptosis induced by factor withdrawal ([2]; 25 or 250 µM YVAD-CHO, Figure 7B): fails to protect
protection from apoptosis induced by the topoisomerase inhibitor etoposide ([2]; not shown): protects

From EP0873137B1, “COMPOSITIONS INCLUDING CALCIUM INFLUX BLOCKERS FOR INHIBITING CELL GROWTH” (The Wellesley Hospital Foundation, priority 1996, dated 1997)
